Data reported in ChEMBL document CHEMBL5463725, “Data for DCP probe BAY-277” (2023).

Experiments:
[1] = target: T1, Muscarinic acetylcholine receptor M2 (Homo sapiens, UniProt P08172); assay: GPCRScan assay: inhibition of M2; set-up: radioligand conc. used [nm] 0.2 – 1.0, parental cells stable CHO
T1 sequence (P08172 whole entry): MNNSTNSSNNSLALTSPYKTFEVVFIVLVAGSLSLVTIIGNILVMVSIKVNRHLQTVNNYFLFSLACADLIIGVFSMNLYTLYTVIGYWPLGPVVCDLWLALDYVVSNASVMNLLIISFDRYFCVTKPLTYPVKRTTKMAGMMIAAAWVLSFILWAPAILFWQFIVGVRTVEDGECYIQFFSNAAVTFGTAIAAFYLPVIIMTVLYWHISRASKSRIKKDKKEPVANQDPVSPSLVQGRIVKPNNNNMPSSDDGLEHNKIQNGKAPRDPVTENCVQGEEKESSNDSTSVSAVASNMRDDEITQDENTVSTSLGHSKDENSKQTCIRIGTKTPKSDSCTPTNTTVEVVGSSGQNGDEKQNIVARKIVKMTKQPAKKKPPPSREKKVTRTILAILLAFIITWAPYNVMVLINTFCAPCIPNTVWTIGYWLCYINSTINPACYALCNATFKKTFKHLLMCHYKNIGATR

[2] = target: Carbonic anhydrase 2 (Homo sapiens) (UniProt P00918); assay: Inhibition of Carbonic Anhydrase II at 10.0 µM in the Eurofins Panlabs Safety Screen; conditions: Compound concentration 10.0 uM
[3] = target: Monoamine oxidase B (MAO-B) (Homo sapiens, UniProt P27338); assay: Inhibition of Monoamine Oxidase MAO-B at 10.0 µM in the Eurofins Panlabs Safety Screen; conditions: compound concentration 10 uM
[4] = target: cGMP-specific 3',5'-cyclic phosphodiesterase (Homo sapiens) (UniProt O76074); assay: Inhibition of Phosphodiesterase PDE5A at 10.0 µM in the Eurofins Panlabs Safety Screen; conditions: Compound concentration 10.0 uM
[5] = target: Type-1 angiotensin II receptor (Homo sapiens) (UniProt P30556); assay: Inhibition of Angiotensin AT1 at 10.0 µM in the Eurofins Panlabs Safety Screen; conditions: Compound concentration 10.0 uM
[6] = target: T2, GABA-A receptor; anion channel (Rattus norvegicus) (UniProt O09028+P15431+P18506+P18508+P19969+P20236+P23574+P23576+P28471+P28473+P30191+P62813+P63079+P63138+Q91ZM7+Q9ES14); assay: Inhibition of GABAA, Chloride Channel, TBOB at 10.0 µM in the Eurofins Panlabs Safety Screen; assay type: protein-complex assay; conditions: Compound concentration 10.0 uM
[7] = target: Glutamate NMDA receptor (Rattus norvegicus) (UniProt P35439+Q00959+Q00960+Q00961+Q62645+Q8VHN2+Q9R1M7); assay: Inhibition of Glutamate, NMDA, Agonism at 10.0 µM in the Eurofins Panlabs Safety Screen; assay type: protein-complex assay; conditions: Compound concentration 10.0 uM
[8] = target: Growth hormone secretagogue receptor type 1 (Homo sapiens) (UniProt Q92847); assay: Inhibition of Growth Hormone Secretagogue (GHS, Ghrelin) at 10.0 µM in the Eurofins Panlabs Safety Screen; conditions: Compound concentration 10.0 uM
[9] = target: Motilin receptor (Homo sapiens) (UniProt O43193); assay: Inhibition of Motilin at 10.0 µM in the Eurofins Panlabs Safety Screen; conditions: Compound concentration 10.0 uM
[10] = target: Sodium-dependent dopamine transporter (Homo sapiens, UniProt Q01959); assay: Inhibition of Transporter, Dopamine (DAT) at 10.0 µM in the Eurofins Panlabs Safety Screen; conditions: Compound concentration 10.0 uM
[11] = target: Sodium-dependent serotonin transporter (Homo sapiens) (UniProt P31645); conditions: Compound concentration 10.0 uM
[12] = target: Kappa-type opioid receptor (Homo sapiens) (UniProt P41145); conditions: Compound concentration 10.0 uM
[13] = target: T3, Alpha-2A adrenergic receptor (Homo sapiens) (UniProt P08913); conditions: Compound concentration 10.0 uM
T3 sequence (whole entry): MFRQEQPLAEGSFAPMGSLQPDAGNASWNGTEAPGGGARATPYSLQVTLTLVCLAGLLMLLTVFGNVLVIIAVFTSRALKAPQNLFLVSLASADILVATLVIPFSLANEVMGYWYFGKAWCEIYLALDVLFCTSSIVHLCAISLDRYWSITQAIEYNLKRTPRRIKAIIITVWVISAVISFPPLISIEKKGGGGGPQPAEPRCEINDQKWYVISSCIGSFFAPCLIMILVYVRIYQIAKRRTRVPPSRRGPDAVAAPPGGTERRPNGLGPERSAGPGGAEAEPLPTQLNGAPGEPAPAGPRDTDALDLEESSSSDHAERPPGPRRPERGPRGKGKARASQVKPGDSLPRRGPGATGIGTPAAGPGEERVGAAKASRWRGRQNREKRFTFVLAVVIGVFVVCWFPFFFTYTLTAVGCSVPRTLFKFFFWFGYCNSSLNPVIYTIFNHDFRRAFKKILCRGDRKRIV

[14] = target: T4, Muscarinic acetylcholine receptor M1 (Homo sapiens) (UniProt P11229); conditions: Compound concentration 10.0 uM
T4 sequence (whole entry): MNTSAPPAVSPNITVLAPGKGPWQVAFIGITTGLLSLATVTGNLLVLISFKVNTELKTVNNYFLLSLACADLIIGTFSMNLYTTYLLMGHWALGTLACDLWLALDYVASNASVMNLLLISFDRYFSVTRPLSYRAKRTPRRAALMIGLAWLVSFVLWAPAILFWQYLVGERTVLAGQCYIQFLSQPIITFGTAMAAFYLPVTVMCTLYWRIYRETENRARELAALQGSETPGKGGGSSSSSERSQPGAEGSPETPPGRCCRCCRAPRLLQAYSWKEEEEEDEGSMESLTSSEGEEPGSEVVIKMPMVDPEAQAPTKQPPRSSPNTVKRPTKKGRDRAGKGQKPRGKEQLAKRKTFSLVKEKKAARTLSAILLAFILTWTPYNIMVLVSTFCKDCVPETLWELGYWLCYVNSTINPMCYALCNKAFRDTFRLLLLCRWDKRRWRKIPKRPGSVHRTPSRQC

[15] = target: T2, GABA-A receptor; anion channel (Rattus norvegicus); conditions: Compound concentration 10.0 uM

Kappa-type opioid receptor (Homo sapiens), sequence (P41145 whole entry): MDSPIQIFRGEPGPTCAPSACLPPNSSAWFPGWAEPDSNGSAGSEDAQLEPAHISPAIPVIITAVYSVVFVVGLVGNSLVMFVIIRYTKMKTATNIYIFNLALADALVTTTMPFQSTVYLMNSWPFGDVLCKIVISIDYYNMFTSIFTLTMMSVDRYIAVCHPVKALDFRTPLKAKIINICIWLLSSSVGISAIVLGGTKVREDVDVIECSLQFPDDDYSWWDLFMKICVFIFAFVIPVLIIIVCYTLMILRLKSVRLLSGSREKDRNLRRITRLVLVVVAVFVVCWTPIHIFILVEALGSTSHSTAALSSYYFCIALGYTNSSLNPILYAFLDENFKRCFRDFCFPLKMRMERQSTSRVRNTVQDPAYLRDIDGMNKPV
Sodium-dependent serotonin transporter (Homo sapiens), sequence (P31645 whole entry, looked up): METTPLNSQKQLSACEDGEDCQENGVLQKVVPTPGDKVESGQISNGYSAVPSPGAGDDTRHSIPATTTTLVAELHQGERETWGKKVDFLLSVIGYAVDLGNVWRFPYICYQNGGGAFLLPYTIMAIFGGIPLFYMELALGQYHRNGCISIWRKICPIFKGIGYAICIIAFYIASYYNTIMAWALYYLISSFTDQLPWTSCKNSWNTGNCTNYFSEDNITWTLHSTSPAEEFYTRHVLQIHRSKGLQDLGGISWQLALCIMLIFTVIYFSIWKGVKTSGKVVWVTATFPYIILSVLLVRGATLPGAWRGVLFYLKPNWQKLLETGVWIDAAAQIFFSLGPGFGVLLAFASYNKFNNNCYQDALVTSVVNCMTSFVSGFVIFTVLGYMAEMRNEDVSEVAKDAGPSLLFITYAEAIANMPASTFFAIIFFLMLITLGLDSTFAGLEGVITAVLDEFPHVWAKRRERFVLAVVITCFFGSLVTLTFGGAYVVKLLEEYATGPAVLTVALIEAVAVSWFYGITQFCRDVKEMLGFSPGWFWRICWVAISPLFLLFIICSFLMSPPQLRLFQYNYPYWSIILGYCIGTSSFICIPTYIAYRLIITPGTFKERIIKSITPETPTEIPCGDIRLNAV
Sodium-dependent dopamine transporter, sequence (Q01959 whole entry): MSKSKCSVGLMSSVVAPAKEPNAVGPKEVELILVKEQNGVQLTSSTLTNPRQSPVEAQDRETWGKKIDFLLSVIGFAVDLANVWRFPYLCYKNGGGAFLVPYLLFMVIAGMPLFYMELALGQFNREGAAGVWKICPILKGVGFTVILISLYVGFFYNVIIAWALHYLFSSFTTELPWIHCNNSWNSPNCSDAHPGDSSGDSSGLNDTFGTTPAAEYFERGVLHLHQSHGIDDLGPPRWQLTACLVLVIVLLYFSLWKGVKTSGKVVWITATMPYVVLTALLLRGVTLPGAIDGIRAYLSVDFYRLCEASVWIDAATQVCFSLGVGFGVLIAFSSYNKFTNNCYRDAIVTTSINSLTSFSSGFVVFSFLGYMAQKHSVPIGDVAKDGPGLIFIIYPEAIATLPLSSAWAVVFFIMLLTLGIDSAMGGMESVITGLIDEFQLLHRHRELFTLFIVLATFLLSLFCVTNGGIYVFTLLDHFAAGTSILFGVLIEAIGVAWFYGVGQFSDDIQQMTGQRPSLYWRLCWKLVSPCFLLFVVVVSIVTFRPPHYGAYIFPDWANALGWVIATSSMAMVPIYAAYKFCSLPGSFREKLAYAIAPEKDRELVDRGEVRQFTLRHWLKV
Monoamine oxidase B (MAO-B), sequence (P27338 whole entry): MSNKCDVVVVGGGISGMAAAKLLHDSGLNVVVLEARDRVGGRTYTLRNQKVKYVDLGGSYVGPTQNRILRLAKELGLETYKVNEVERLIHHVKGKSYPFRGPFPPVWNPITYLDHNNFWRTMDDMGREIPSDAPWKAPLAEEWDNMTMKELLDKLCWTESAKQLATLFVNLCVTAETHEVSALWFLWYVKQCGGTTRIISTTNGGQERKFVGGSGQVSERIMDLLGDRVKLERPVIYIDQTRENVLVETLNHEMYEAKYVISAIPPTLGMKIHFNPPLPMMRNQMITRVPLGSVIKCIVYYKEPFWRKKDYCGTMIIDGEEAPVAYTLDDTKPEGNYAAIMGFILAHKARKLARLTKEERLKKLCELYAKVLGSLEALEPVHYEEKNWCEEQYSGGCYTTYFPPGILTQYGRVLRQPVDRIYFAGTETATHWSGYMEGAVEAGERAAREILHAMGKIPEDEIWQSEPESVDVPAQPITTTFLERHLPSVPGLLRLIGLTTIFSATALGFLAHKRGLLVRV
Growth hormone secretagogue receptor type 1 (Homo sapiens), sequence (Q92847 whole entry): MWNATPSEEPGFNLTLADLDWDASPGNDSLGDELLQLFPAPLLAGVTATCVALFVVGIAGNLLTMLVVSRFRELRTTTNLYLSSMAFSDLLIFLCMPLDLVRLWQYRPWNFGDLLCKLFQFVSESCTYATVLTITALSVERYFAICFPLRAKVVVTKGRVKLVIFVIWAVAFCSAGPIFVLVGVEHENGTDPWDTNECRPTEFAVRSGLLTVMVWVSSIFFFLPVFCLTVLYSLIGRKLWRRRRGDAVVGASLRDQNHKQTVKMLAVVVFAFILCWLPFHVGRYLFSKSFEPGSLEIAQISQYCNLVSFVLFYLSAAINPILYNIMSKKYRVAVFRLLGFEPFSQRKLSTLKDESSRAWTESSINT
Motilin receptor (Homo sapiens), sequence (O43193 whole entry): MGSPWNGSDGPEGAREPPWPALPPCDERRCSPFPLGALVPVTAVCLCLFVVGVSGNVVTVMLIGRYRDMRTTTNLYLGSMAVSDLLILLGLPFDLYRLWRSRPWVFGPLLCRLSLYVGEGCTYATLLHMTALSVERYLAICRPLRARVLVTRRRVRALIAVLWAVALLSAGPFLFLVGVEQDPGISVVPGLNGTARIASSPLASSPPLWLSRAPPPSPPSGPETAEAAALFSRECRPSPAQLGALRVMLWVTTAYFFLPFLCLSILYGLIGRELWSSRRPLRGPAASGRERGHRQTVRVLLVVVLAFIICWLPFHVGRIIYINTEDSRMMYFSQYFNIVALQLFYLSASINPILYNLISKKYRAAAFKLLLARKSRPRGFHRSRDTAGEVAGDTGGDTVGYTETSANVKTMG
Type-1 angiotensin II receptor (Homo sapiens), sequence (P30556 whole entry): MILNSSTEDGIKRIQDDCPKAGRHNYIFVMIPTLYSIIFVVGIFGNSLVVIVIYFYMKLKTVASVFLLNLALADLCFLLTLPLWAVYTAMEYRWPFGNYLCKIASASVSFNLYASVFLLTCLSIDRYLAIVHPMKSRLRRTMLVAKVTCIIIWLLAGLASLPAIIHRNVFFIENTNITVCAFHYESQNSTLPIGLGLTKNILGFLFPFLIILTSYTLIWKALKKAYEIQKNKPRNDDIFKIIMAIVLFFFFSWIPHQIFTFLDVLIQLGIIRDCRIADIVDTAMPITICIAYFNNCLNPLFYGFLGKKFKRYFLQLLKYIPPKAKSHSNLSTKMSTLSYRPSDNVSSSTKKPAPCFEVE

SMILES	Ki ([1]; read-out: Ki)	Ki ([1]; read-out: pKi (converted))	inhibition [2]	inhibition at 10 µM [3]	inhibition [4]	inhibition [5]	inhibition [6]	inhibition [7]	inhibition [8]	inhibition [9]	inhibition [10]	inhibition [11]	inhibition [12]	inhibition [13]	inhibition [14]	inhibition [15]
O=C1NCCCC1N1Cc2cc(C3CCN(C(=O)CCCCCN4CCC(c5ccc(Oc6nn7cnnc7c7c6CCCC7)cc5)CC4)CC3)ccc2C1=O (configuration not stated)	1070 nM	1050 nM	-8%	30%	10%	2%	-5%	0%	5%	10%	39%	9.58%	29.3%	29.3%	60.4%	44.6%
O=C1CCC(N2Cc3cc(C4CCN(C(=O)CCCCCN5CCC(c6ccc(Oc7nn8cnnc8c8c7CCCC8)cc6)CC5)CC4)ccc3C2=O)C(=O)N1 (configuration not stated)	677 nM	676 nM	-8%	34%	25%	-4%	-6%	21%	2%	6%	38%	45.8%	27.6%	33.1%	71.3%	36.6%
